US20070203211A1, “Drug for preventing or treating angiogenic eye diseases” (SANKYO COMPANY, LIMITED, priority 2003, published 2007)

What was measured:
C57BL/6 mice = assay: oxygen-induced retinopathy in mice, retinopathy score by ADPase staining of retinal flat specimens; assay type: in vivo; conditions: score as percentage of solvent control (100%), n = 9 to 16
Experimental: Seven-day-old C57BL/6 mice were housed for five days with their mother in roughly 75% oxygen. Subsequently, the animals were housed for another five days after returning to ordinary air. While being housed in air, the animals were administered a test compound once a day. Following completion of administration, the animals were sacrificed by dislocation of the cervical vertebra followed by excision of the eyeball. The eyeballs were fixed in neutral formalin. After preparing flat specimens of the retina, vascular endothelium was stained by ADPase staining (Lutty, et al., Arch. Ophthalmol. 1992; 100: 267). After staining, retinopathy was scored in a blind study, and retinopathy was assessed for each of 12 retinal sections obtained by dividing the entire circumference of the retina into 12 equal sections centering about the papilla of the optic nerve. Assessments were made by scoring either the presence of retinopathy (score: 1) or the absence of retinopathy (score: 0), and determining the retinopathy score for each specimen based on the total score of the 12 sections. The score of each test compound was calculated as a percentage based on assigning a value of 100% for the score following administration of solvent. The test compounds consisted of (5-methyl-2-oxo-1,3-dioxolen-4-yl)methyl 4-(1-hydroxy-1-methylethyl)-2-propyl-1-[2′-(1H-tetrazol-5-yl)biphenyl-4-ylmethyl]imidazole-5-carboxylate (hereinafter, indicated as “Compound A”) for the medicament of the present invention, Candesartan cilexetil and Losartan.

[1] = test system: New Zealand White rabbits; assay: VEGF pellet-induced corneal neovascularization in rabbits; assay type: in vivo; conditions: dosage 10 mg/kg once a day for one week; AA = neovascularization density score (0 to 5) x length (mm); solvent control 0.72 ± 0.15; n = 3
Excerpt: Male New Zealand White rabbits were used in this example. The animals were anesthetized by administering suitable amounts of animal […] (registered trade mark) 50 and Celactal (registered trade mark). Moreover, the eyes were topically anesthetized by dropping 0.4% Benoxil (registered trade mark) opthalmic solution. The procedure was basically preformed in accordance with the method of Ziche, et al. (J. Clin. Invest. 1997 99: 2625-2634), and consisted of creating a pocket in the center of the cornea with a razor, and inserting a hydron pellet containing VEGF produced in advance into the pocket. A solution of the test compound was administered once a day for one week. Corneal neovascularization was photographed on the day after final administration of the test compound. Neovascularization was evaluated using the density and length of newly formed vessels as an index. Namely, neovascularization density was scored from 0 to 5 by referring to standard photographs corresponding to each score. The length of neovascularization was calculated by measuring the length (mm) of vessels uniformly extending from the corneal limbus towards the pellet based on a scale bar on the photograph. The value obtained by multiplying the neovascularization density score by the neovascularization length (mm) was used to indicate angiogenic activity (AA).

[2] = dosage 1 mg/kg once a day for five days
[3] = dosage 3 mg/kg once a day for five days
[4] = dosage 10 mg/kg once a day for five days
[5] = dosage 30 mg/kg once a day for five days

SMILES	Retinopathy (%) (C57BL/6 mice; [2])	Retinopathy (%) (C57BL/6 mice; [3])	Retinopathy (%) (C57BL/6 mice; [4])	Retinopathy (%) (C57BL/6 mice; [5])	Angiogenic Activity (AA) [1]	Retinopathy (%) (C57BL/6 mice; dosage 100 mg/kg once a day for five days)
CCOc1nc2cccc(C(=O)OC(C)OC(=O)OC3CCCCC3)c2n1Cc1ccc(-c2ccccc2-c2nnn[nH]2)cc1 (stereo not shown) [Candesartan cilexetil]	84 ± 14	70 ± 12	56 ± 11	58 ± 11	–	–
CCCc1nc(C(C)(C)O)c(C(=O)OCc2oc(=O)oc2C)n1Cc1ccc(-c2ccccc2-c2nnn[nH]2)cc1 [Compound A, (5-methyl-2-oxo-1,3-dioxolen-4-yl)methyl 4-(1-hydroxy-1-methylethyl)-2-propyl-1-[2′-(1H-tetrazol-5-yl)biphenyl-4-ylmethyl]imidazole-5-carboxylate]	57 ± 13	40 ± 9	31 ± 7	32 ± 11	0.14 ± 0.11	–
CCCCc1nc(Cl)c(CO)n1Cc1ccc(-c2ccccc2-c2nn[nH]n2)cc1 [Losartan]	–	90 ± 11	54 ± 10	42 ± 9	–	40 ± 11
